Measurements from patent EP4792818A1, “COMPOUND SUITABLE FOR EXTERNAL USE, AND PHARMACEUTICAL COMPOSITION” (EnKang Pharmaceuticals (Guangzhou), Ltd., priority 2023, dated 2025).
Read-outs that look alike come from different tables or passages of the source.

Experiments:
[1] = 20 °C
[2] = system: TE.354.T cells (human cutaneous basal cell carcinoma)
Experimental: The experimental procedures were as follows: The cells were subcultured in a complete medium containing 10% FBS in an incubator at 37 °C with 5% CO2 and saturated humidity. The cell density was adjusted to (3-5) × 10^4 cells/mL using a complete medium containing 10% FBS. The cell suspension was added to the wells of a 96-well culture plate at 100 µL/well, and the plate was incubated in an incubator at 37 °C with 5% CO2 and saturated humidity overnight (for about 16-24 hrs). Various dose groups of the test substance and a solvent control group were set. On the next day, the original culture medium was discarded. Subsequently, 20% FBS-containing complete medium was added at 100 µL/well, and the test substance or solvent in FBS-free medium was then added at 100 µL/well, resulting in a final FBS concentration of 10%. Meanwhile, a negative control group was set: each well received 100 µL of 20% FBS-containing complete medium + 100 µL of incomplete medium containing cells, resulting in a final FBS concentration of 10%. A zero adjustment group (background) was also set: 200 µL of the culture medium alone (100 µL of 20% FBS-containing complete medium + 100 µL of incomplete medium), without drugs and cells. For each concentration group, four replicate wells were set. […]

[3] = for Labeled amount (%) / Related substances (%) Impurity A / Related substances (%) Impurity B / Related substances (%) Impurity C / Related substances (%) Impurity D / Related substances (%) Impurity E / Related substances (%) Impurity F / Related substances (%) RRT0.73 / Related substances (%) RRT1.10 / Related substances (%) RRT2.18 / Related substances (%) Total impurities: mixed with CMC-Na 1:5
[4] = system: SCL-1 cells
Experimental: (§1) The experimental procedures were as follows: The cells were subcultured in a complete medium containing 10% FBS in an incubator at 37 °C with 5% CO2 and saturated humidity. The cell density was adjusted to (3-5) × 10^4 cells/mL using a complete medium containing 10% FBS. The cell suspension was added to the wells of a 96-well culture plate at 100 µL/well, and the plate was incubated in an incubator at 37 °C with 5% CO2 and saturated humidity overnight (for about 16-24 hrs). Various dose groups of the test substance and a solvent control group were set. On the next day, the original culture medium was discarded. Subsequently, 20% FBS-containing complete medium was added at 100 µL/well, and the test substance or solvent in FBS-free medium was then added at 100 µL/well, resulting in a final FBS concentration of 10%. Meanwhile, a negative control group was set: each well received 100 µL of 20% FBS-containing complete medium + 100 µL of incomplete medium containing cells, resulting in a final FBS concentration of 10%. A zero adjustment group (background) was also set: 200 µL of the culture medium alone (100 µL of 20% FBS-containing complete medium + 100 µL of incomplete medium), without drugs and cells. For each concentration group, four replicate wells were set.
(§2) After incubation for 48 hrs under the experimental conditions, the supernatant was discarded, and 110 µL of CCK-8 working solution (100 µL of 10% FBS-containing complete medium and 10 µL of CCK-8 solution) were added to each well. The cells were further incubated for 4 hrs, and the optical density value at a wavelength of 450 nm (A450) was then measured for each well using a microplate reader. The average value for the wells of each treatment group (T) was compared with the average value for the negative control wells (C). The percent inhibition rate of each concentration group was calculated using the following formula: [Inhibition rate = (1 - T/C) × 100%], and the half-maximal inhibitory concentration (IC50) was calculated.

[5] = system: A431 cells
Experimental: as §1, §2

[6] = system: COLO-16 cells
Experimental: as §1, §2

[7] = system: SCL-1 cells; conditions: SCL-1 tumor-bearing nude mice, 21 days
Experimental: (§3) Quarantine-qualified male BALB/c-nu nude mice weighing 13.4-20.5 g were each inoculated with 0.2 mL of SCL-1 cells in logarithmic growth phase at 3 x 10^6 cells/mL (with Matrigel and cell suspension mixed in a ratio of 1:2) in the right axilla. […] The drug was kept in contact with the skin for 4 hrs per administration, and the treatment was given to each group for three consecutive weeks. During the treatment period, the long diameter (a) and short diameter (b) of the tumors were measured using a vernier caliper every 3 days. Then, the tumor volume (TV), relative tumor volume (RTV), and relative tumor proliferation rate (T/C, %) were calculated. After the final administration, the tumor tissues were dissected out and weighed to calculate the tumor growth inhibition rates.

[8] = system: human liver cancer HepG2 cells; conditions: documented in CN 104736157 A; cited from earlier work
[9] = system: COLO-16 cells; conditions: COLO-16 tumor-bearing nude mice, 21 days
Experimental: as §3, with “weighing 13.7-21.1” for “weighing 13.4-20.5”, “of COLO-16” for “of SCL-1”, “at 6.7” for “at 3”, “cells/mL” for “cells/mL (with Matrigel and cell suspension mixed in a ratio of 1:2)”

[10] = topical gel; for plasma drug concentrations above the LLOQ: 0.008-0.06 mg/cm^2, LLOQ 0.02 ng/mL
[11] = High humidity for 10 days (RH 90%±5%)
[12] = High temperature for 10 days (60 °C±2 °C)

## CO[C@H]1[C@H](O)[C@H](O[C@H]2CC[C@@]3(C)[C@H](CC[C@@H]4[C@@H]3CC[C@]3(C)[C@@H](C5=CC(=O)OC5)CC[C@]43O)C2)O[C@@H](C)[C@@H]1O [17β-neriifolin]
[1]; Ethanol concentration 20 %, sample concentration 8 mg/g
  Dissolution behavior: dissolved
[1]; Ethanol concentration 20 %, sample concentration 8 mg/g, listed as 17β-Neriifolin
  Dissolution behavior: Dissolved
[1]; Ethanol concentration 45 %, sample concentration 20 mg/g
  Dissolution behavior: dissolved
[1]; Ethanol concentration 45 %, sample concentration 20 mg/g, listed as 17β-Neriifolin
  Dissolution behavior: Dissolved
[1]; Ethanol concentration 50 %, sample concentration 24 mg/g
  Dissolution behavior: Dissolved
[1]; Ethanol concentration 66 %, sample concentration 32 mg/g
  Dissolution behavior: Dissolved
[1]; Ethanol concentration 75 %, sample concentration 40 mg/g
  Dissolution behavior: Dissolved
[1]; Ethanol concentration 100 %, sample concentration 50 mg/g
  Dissolution behavior: Dissolved
[2]
  growth inhibitory effects: strong growth inhibitory effects
[3]; combined with sodium carboxymethyl cellulose 1:5, 10 days
  impact of high temperature, high humidity, and illumination on the related substances and drug content: no impact
[3]; mass ratio 1:5, 10 days, high temperature, high humidity, illumination
  stability of the combination with sodium carboxymethyl cellulose compared with the combination with Carbomer: significantly superior
[3]; 0 days
  Labeled amount (%): 99.56%
  Related substances (%) Impurity A: 0.17%
  Related substances (%) Impurity B: 0.36%
  Related substances (%) Impurity C: 0.25%
  Related substances (%) Impurity D: 0.13%
  Related substances (%) Impurity E: 0.15%
  Related substances (%) Impurity F: 0.14%
  Related substances (%) RRT0.73: 0.05%
  Related substances (%) RRT1.10: 0.04%
  Related substances (%) RRT2.18: 0.03%
  Related substances (%) Total impurities: 1.32%
[3]; [11]
  Labeled amount (%): 99.42%
  Related substances (%) Impurity A: 0.17%
  Related substances (%) Impurity B: 0.36%
  Related substances (%) Impurity C: 0.25%
  Related substances (%) Impurity D: 0.13%
  Related substances (%) Impurity E: 0.15%
  Related substances (%) Impurity F: 0.14%
  Related substances (%) RRT0.73: 0.05%
  Related substances (%) RRT1.10: 0.04%
  Related substances (%) RRT2.18: 0.03%
  Related substances (%) Total impurities: 1.32%
[3]; [12]
  Labeled amount (%): 100.95%
  Related substances (%) Impurity A: 0.17%
  Related substances (%) Impurity B: 0.36%
  Related substances (%) Impurity C: 0.25%
  Related substances (%) Impurity D: 0.13%
  Related substances (%) Impurity E: 0.15%
  Related substances (%) Impurity F: 0.14%
  Related substances (%) RRT0.73: 0.05%
  Related substances (%) RRT1.10: 0.04%
  Related substances (%) RRT2.18: 0.03%
  Related substances (%) Total impurities: 1.32%
[3]; Strong light for 10 days
  Labeled amount (%): 99.96%
  Related substances (%) Impurity A: 0.17%
  Related substances (%) Impurity B: 0.36%
  Related substances (%) Impurity C: 0.25%
  Related substances (%) Impurity D: 0.13%
  Related substances (%) Impurity E: 0.15%
  Related substances (%) Impurity F: 0.14%
  Related substances (%) RRT0.73: 0.05%
  Related substances (%) RRT1.10: 0.04%
  Related substances (%) RRT2.18: 0.03%
  Related substances (%) Total impurities: 1.32%
[4]
  growth inhibitory effects: strong growth inhibitory effects
[5]
  growth inhibitory effects: strong growth inhibitory effects
[6]
  growth inhibitory effects: strong growth inhibitory effects
[7]
  anti-tumor effect compared with Imiquimod cream (50 mg/g): significantly superior to that of Imiquimod cream
[8]
  cell cycle arrest and apoptosis: induce cell cycle arrest and apoptosis
[9]
  anti-tumor effect compared with Imiquimod cream (50 mg/g): significantly superior to that of Imiquimod cream
[10]; four Australian subjects
  plasma drug concentrations above the LLOQ: 0.021 to 0.101 ng/mL
[10]; seven Chinese subjects
  plasma drug concentrations above the LLOQ: 0.022 to 0.106 ng/mL
[10]; 0.008-0.06 mg/cm^2 dose range
  dose dependence of systemic exposure: No dose-dependent increase
